Here are results for one compound from patent US20040076614A1, “Symbiotic regenerative agent” (priority 2001, published 2004).

The test system of this assay is depression with gastro-intestinal over-growth with Aspergillus and Candida yeasts. Briefly: Antidepressive effectiveness (proband tests), multi-step method. The assay is classed as in vivo, human. On the set-up: key: − negative; + positive. The conditions noted are these: Level 0 antidepressants (Seroxat); Level 1 1 g/day oral 4 weeks; Level 2 2 g daily oral 4 weeks after level 1. The source says: Antidepressive effectiveness (2 proband tests/female 1/male 1)
Diseases such as depressions can often be treated in an exclusively symptomatic way with psychopharmaceuticals. However, mycoses/mycotoxins may be the initial cause of such diseases. The object was to eliminate the gastro-intestinal over-growth with Aspergillus and Candida yeasts using BHQ (see also Patent Application EP 00 124 497), and to apply BHQ R6 regenerative agent in a multi-step method.
Level 0: Depression conservatively treated with antidepressants (Seroxat®). The general state of health was subjectively reported as non-satisfactory; in part, depression attacks occurred at different times of day (e.g., in the evening), so that the dosage was increased. The microbiological detection of Candida spec. and Aspergillus spec. was positive. The probands complained about a high weight increase (“spongy feeling”).
Level 1: For 4 weeks, BHQ “flavor-containing medicament” was administered orally once a day for the decontamination of the mycosis and/or any mycotoxins present (1 g/day).
Level 2: As a next step after level 1, BHQ R6 regenerative agent (2 g daily) was administered orally for 4 weeks.

Take `Fc1ccc([C@@H]2CCNC[C@H]2COc2ccc3c(c2)OCO3)cc1` [Seroxat]: the General health entry is recorded as “−”, the Weight increase entry is “+”, the “microbiological gastro-intestinal detection: Candida spec. Aspergillus spec.” value is recorded as “+” and the part. status entry was “+”.
